Laboratory results taken from US11613556B2, “Oxysterols and methods of use thereof” (Sage Therapeutics, Inc., priority 2016, dated 2023).
pEC50: −log10 of the molar value. Like-named read-outs stand apart in the source and are kept apart here.

How the values were obtained:
Format in all cases: cell-based
[1] = molecular target: GluN2B glutamate receptors expressed in mammalian cells (Homo sapiens (Human), UniProt Q05586+Q13224); assay: Whole-cell patch clamp of mammalian cells (Ionworks Barracuda), positive allosteric modulation, GluN2B; details: for Emax: read-out: GluN2B PCA EMax (%)
Sequence of GluN2B glutamate receptors expressed in mammalian cells (Q13224 27-1484, other chains not shown): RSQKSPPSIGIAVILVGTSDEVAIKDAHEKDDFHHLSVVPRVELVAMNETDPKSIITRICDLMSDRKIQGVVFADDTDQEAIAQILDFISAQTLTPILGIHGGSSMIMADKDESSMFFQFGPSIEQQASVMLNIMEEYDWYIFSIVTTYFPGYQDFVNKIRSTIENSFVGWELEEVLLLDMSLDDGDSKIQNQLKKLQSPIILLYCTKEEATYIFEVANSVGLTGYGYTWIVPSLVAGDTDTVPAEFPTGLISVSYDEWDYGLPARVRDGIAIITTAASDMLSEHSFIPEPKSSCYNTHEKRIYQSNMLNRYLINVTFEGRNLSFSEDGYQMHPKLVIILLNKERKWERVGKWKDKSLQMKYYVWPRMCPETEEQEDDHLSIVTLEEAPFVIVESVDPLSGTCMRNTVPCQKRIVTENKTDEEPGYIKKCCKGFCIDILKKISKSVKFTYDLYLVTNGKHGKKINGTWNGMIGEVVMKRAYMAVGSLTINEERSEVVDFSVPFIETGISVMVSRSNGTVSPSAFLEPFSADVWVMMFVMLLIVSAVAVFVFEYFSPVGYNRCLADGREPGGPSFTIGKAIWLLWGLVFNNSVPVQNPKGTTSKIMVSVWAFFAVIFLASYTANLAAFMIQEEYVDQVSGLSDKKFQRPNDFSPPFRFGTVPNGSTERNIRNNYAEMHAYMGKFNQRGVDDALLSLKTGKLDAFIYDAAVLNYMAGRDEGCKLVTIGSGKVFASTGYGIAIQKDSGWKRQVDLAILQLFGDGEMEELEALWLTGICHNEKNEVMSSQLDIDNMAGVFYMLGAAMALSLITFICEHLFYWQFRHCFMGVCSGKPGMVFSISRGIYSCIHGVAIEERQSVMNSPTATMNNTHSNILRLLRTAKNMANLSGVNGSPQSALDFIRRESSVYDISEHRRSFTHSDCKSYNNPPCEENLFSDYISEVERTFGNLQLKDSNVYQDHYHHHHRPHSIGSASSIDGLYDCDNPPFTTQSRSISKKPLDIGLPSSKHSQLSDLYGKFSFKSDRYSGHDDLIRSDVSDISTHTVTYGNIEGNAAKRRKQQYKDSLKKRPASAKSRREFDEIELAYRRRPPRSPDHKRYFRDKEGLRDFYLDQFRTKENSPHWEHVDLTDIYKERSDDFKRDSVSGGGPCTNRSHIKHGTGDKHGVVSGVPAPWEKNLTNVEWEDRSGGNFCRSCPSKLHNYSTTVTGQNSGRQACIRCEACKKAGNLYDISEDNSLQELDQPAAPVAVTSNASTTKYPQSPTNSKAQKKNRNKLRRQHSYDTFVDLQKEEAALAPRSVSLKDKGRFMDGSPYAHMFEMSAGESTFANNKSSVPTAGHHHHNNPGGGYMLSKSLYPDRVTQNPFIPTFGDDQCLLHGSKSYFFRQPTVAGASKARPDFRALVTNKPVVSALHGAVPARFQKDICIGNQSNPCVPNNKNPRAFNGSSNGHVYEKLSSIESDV
Summary of the method: (§1)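 Ionworks Barracuda perforated-patch recordings, holding −70 mV, −40 mV during application; CsCl/CsF intracellular pH 7.2, HB-PS extracellular pH 7.4 with 5 mM CaCl2. 5 min pre-application of test article alone, then co-application with EC20 L-glutamate plus 30 μM glycine; potentiation read as peak current amplitude.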

[2] = molecular target: GluN1/GluN2A glutamate receptors (human GRIN1/GRIN2A) expressed in HEK293 cells (Homo sapiens (Human), UniProt Q05586+Q12879); assay: Whole-cell patch clamp of mammalian cells (Ionworks Barracuda), positive allosteric modulation, GluN1/GluN2A; details: for Emax: read-out: GluN2A PCA EMax (%)
Sequence of GluN1/GluN2A glutamate receptors (human GRIN1/GRIN2A) expressed in HEK293 cells (Q12879 whole entry, looked up, other chains not shown): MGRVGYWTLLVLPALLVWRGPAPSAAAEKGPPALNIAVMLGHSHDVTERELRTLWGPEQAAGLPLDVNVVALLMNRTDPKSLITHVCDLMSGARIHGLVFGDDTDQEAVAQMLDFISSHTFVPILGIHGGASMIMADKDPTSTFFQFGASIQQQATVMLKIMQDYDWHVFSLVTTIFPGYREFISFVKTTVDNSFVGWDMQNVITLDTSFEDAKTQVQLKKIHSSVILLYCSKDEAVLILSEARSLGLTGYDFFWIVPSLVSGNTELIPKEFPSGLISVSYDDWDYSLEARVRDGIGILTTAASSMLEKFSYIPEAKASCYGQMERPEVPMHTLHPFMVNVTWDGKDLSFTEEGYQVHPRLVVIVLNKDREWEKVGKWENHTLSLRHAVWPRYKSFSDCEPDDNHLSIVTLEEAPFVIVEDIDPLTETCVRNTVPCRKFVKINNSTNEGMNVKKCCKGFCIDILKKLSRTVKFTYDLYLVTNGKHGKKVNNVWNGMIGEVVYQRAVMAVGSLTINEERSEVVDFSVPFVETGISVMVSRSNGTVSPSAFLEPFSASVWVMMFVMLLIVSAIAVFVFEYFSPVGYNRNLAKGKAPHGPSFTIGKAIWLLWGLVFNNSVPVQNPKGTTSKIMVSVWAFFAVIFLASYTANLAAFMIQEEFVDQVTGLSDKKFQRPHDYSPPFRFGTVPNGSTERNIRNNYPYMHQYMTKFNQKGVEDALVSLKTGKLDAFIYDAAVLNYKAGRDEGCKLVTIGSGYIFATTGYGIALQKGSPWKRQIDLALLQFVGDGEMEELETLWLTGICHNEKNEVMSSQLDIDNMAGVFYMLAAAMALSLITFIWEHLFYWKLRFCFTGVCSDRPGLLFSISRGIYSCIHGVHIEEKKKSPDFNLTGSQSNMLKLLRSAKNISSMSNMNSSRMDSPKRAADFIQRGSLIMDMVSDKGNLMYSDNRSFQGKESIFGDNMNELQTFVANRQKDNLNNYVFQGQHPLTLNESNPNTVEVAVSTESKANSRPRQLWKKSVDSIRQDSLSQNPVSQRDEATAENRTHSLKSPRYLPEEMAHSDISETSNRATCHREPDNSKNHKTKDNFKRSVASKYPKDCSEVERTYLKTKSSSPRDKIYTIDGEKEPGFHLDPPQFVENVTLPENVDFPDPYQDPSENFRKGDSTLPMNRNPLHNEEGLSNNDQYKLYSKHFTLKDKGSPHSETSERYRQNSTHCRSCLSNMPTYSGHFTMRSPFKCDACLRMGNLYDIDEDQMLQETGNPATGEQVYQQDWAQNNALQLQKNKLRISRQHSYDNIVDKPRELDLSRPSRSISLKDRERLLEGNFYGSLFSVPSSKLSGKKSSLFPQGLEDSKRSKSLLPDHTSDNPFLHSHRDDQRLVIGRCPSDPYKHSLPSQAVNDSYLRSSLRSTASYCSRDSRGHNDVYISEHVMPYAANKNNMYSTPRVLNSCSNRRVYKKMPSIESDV
Summary of the method: as §1

[3] = molecular target: glutamate-activated channels of the GRIN1/2A subtype stably transfected in HEK 293 cells (Homo sapiens (Human), UniProt Q05586+Q12879); assay: Automated patch-clamp system (QPatch HTX), percent potentiation at 1 μM; details: HEK293, 1 μM test compound, 300 μM NMDA with 8 μM glycine, HEK 293 GRIN1/2A, read-out: GluN2A PCA % potentiation at 1 μM
Sequence of glutamate-activated channels of the GRIN1/2A subtype stably transfected in HEK 293 cells (Q12879 whole entry, looked up, other chains not shown): as above
Summary of the method: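 Tetracycline-induced HEK 293 cells stably expressing human GRIN1/2A were whole-cell recorded on QPatch HTX in Mg-free bath solution at pH 7.4. Compound at 1.0 μM (0.1% DMSO) was co-applied with submaximal 300 μM NMDA plus 8 μM glycine, and percent potentiation was recorded.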

[4] = peak current amplitude, co-application with EC20 L-glutamate and 30 μM glycine, read-out: GluN2B PCA EC50
[5] = peak current amplitude, co-application with EC20 L-glutamate and 30 μM glycine
[6] = peak current amplitude, co-application with EC20 L-glutamate and 30 μM glycine, HEK293

## CC[C@]1(O)CC[C@@]2(C)[C@H](CC[C@@H]3[C@@H]2CC[C@]2(C)[C@@H]([C@H](C)[C@@H](O)CC4CCCC4)CC[C@@H]32)C1 [Compound 94, (3S,5R,8R,9S,10S,13S,14S,17R)-17-((2S,3S)-4-cyclopentyl-3-hydroxybutan-2-yl)-3-ethyl-10,13-dimethylhexadecahydro-1H-cyclopenta[a]phenanthren-3-ol]
[1]; [4]
  pEC50: < 6.00
[1]; [5]
  Emax: < 100%
[2]
  pEC50: < 6.00
[2]; [6]
  Emax: < 100%
[3]
  activation at 1 µM: -40 to -10%

## CC[C@]1(O)CC[C@@]2(C)[C@H](CC[C@@H]3[C@@H]2CC[C@]2(C)[C@@H]([C@H](C)[C@H](O)CCC(C)C)CC[C@@H]32)C1 [Compound 96, (3S,5R,8R,9S,10S,13S,14S,17R)-3-ethyl-17-((2S,3R)-3-hydroxy-6-methylheptan-2-yl)-10,13-dimethylhexadecahydro-1H-cyclopenta[a]phenanthren-3-ol]
[1]
  pEC50: < 6.00
  Emax: < 100%
[2]; peak current amplitude, co-application with EC20 L-glutamate and 30 μM glycine, HEK293, read-out: GluN2A PCA EC50
  pEC50: 6.00 to 7.00
[2]; [6]
  Emax: < 100%
[3]
  activation at 1 µM: -10 to 10%

## CC[C@]1(O)CC[C@@]2(C)[C@@H](CC[C@@H]3[C@@H]2CC[C@]2(C)[C@@H]([C@H](C)[C@@H](O)CC4CCCC4)CC[C@@H]32)C1 [Compound 98, (3S,5S,8R,9S,10S,13S,14S,17R)-17-((2S,3S)-4-cyclopentyl-3-hydroxybutan-2-yl)-3-ethyl-10,13-dimethylhexadecahydro-1H-cyclopenta[a]phenanthren-3-ol]
[1]; [4]
  pEC50: < 6.00
[1]; [5]
  Emax: < 100%
[2]
  pEC50: < 6.00
[2]; [6]
  Emax: < 100%
[3]
  activation at 1 µM: -40 to -10%

## CC[C@]1(O)CC[C@@]2(C)C(=CC[C@H]3[C@@H]4CC[C@H]([C@H](C)[C@@H](O)CC5CCCC5)[C@@]4(C)CC[C@@H]32)C1 [Compound 100, (3S,8S,9S,10R,13S,14S,17R)-17-((2S,3S)-4-cyclopentyl-3-hydroxybutan-2-yl)-3-ethyl-10,13-dimethyl-2,3,4,7,8,9,10,11,12,13,14,15,16,17-tetradecahydro-1H-cyclopenta[a]phenanthren-3-ol]
[1]; [4]
  pEC50: < 6.00
[1]; [5]
  Emax: < 100%
[2]
  pEC50: < 6.00
[2]; [6]
  Emax: < 100%
[3]
  activation at 1 µM: -40 to -10%
